Assay results published in patent US20260232767A1, “INTERLEUKIN-23 RECEPTOR ANTAGONIST PEPTIDES FOR USE IN THE TREATMENT OF PSORIASIS” (Janssen Pharmaceutica NV, priority 2023, published 2026).

System: subjects with moderate-to-severe plaque psoriasis
Assay: PSSD symptom and sign scores, Example 2
Format: in vivo, human
Settings: for Change from Baseline in PSSD Sign Score, LSMean / Change from Baseline in PSSD Symptom Score, LSMean: MMRM

CC(=O)NCCCC[C@@H]1NC(=O)[C@H](Cc2c[nH]c3c(C)cccc23)NC(=O)[C@H]([C@@H](C)O)NC(=O)[C@H](CC(N)=O)NC(=O)[C@@H](NC(C)=O)C(C)(C)SSC(C)(C)[C@@H](C(=O)N[C@@H](Cc2ccc(OCCN)cc2)C(=O)N[C@@H](Cc2ccc3ccccc3c2)C(=O)NC2(C(=O)N[C@@H](CCC(=O)O)C(=O)N[C@@H](CC(N)=O)C(=O)N[C@@H](Cc3cccnc3)C(=O)N(C)CC(N)=O)CCOCC2)NC1=O [IL-23 receptor antagonist peptide, Ac-[Pen]*-N-T-[W(7-Me)]-[Lys(Ac)]-[Pen]*-Phe[4-(2-aminoethoxy)]-[2-Nal]-[THP]-E-N-[3-Pal]-Sarc-NH2 (*[Pen]-[Pen]* formdisulfidebond)]
Change from Baseline in PSSD Symptom Score, Mean (Week 32, 100 mg QD): −28.0
Change from Baseline in PSSD Symptom Score, Median (Week 32, 100 mg QD): −25.0
Subjects Achieving PSSD Sign Score 0 (%) (Week 32, 100 mg QD, Baseline Sign Score ≥1, N=43): (14.0%)
Subjects Achieving PSSD Symptom Score 0 (%) (Week 32, 100 mg QD, Baseline Symptom Score ≥1, N=43): (18.6%)
Change from Baseline in PSSD Sign Score, LSMean (Week 32, 100 mg QD): −45.8
Change from Baseline in PSSD Symptom Score, LSMean (Week 32, 100 mg QD): −36.4
Change from Baseline in PSSD Sign Score, Mean (Week 32, Placebo → 100 mg QD): −42.3
Change from Baseline in PSSD Sign Score, Median (Week 32, Placebo → 100 mg QD): −45.0
Change from Baseline in PSSD Symptom Score, Mean (Week 32, Placebo → 100 mg QD): −31.9
Change from Baseline in PSSD Symptom Score, Median (Week 32, Placebo → 100 mg QD): −36.0
Subjects Achieving PSSD Sign Score 0 (%) (Week 32, Placebo → 100 mg QD, Baseline Sign Score ≥1, crossed-over subjects only): (17.1%)
Subjects Achieving PSSD Symptom Score 0 (%) (Week 32, Placebo → 100 mg QD, Baseline Symptom Score ≥1, crossed-over subjects only): (20.0%)
Change from Baseline in PSSD Sign Score, LSMean (Week 32, Placebo → 100 mg QD): −41.8
Change from Baseline in PSSD Symptom Score, LSMean (Week 32, Placebo → 100 mg QD): −33.9
Change from Baseline in PSSD Sign Score, Mean (Week 40, 25 mg BID): −34.1
Change from Baseline in PSSD Sign Score, Median (Week 40, 25 mg BID): −34.0
Change from Baseline in PSSD Symptom Score, Mean (Week 40, 25 mg BID): −30.0
Change from Baseline in PSSD Symptom Score, Median (Week 40, 25 mg BID): −32.0
Subjects Achieving PSSD Sign Score 0 (%) (Week 40, 25 mg BID, Baseline Sign Score ≥1, N=41): (4.9%)
Subjects Achieving PSSD Symptom Score 0 (%) (Week 40, 25 mg BID, Baseline Symptom Score ≥1, N=41): (9.8%)
Change from Baseline in PSSD Sign Score, LSMean (Week 40, 25 mg BID): −34.9
Change from Baseline in PSSD Symptom Score, LSMean (Week 40, 25 mg BID): −30.5
Change from Baseline in PSSD Sign Score, Mean (Week 40, 25 mg QD): −36.9
Change from Baseline in PSSD Sign Score, Median (Week 40, 25 mg QD): −36.0
Change from Baseline in PSSD Symptom Score, Mean (Week 40, 25 mg QD): −33.9
Change from Baseline in PSSD Symptom Score, Median (Week 40, 25 mg QD): −35.0
Subjects Achieving PSSD Sign Score 0 (%) (Week 40, 25 mg QD, Baseline Sign Score ≥1, N=43): (11.6%)
Subjects Achieving PSSD Symptom Score 0 (%) (Week 40, 25 mg QD, Baseline Symptom Score ≥1, N=43): (20.9%)
Change from Baseline in PSSD Sign Score, LSMean (Week 40, 25 mg QD): −29.4
Change from Baseline in PSSD Symptom Score, LSMean (Week 40, 25 mg QD): −25.9
Change from Baseline in PSSD Sign Score, Mean (Week 40, 50 mg QD): −39.6
Change from Baseline in PSSD Sign Score, Median (Week 40, 50 mg QD): −42.0
Change from Baseline in PSSD Symptom Score, Mean (Week 40, 50 mg QD): −34.9
Change from Baseline in PSSD Symptom Score, Median (Week 40, 50 mg QD): −32.0
Subjects Achieving PSSD Sign Score 0 (%) (Week 40, 50 mg QD, Baseline Sign Score ≥1, N=43): (9.3%)
Subjects Achieving PSSD Symptom Score 0 (%) (Week 40, 50 mg QD, Baseline Symptom Score ≥1, N=42): (23.8%)
Change from Baseline in PSSD Sign Score, LSMean (Week 40, 50 mg QD): −39.5
Change from Baseline in PSSD Symptom Score, LSMean (Week 40, 50 mg QD): −32.7
Change from Baseline in PSSD Sign Score, Mean (Week 40, 100 mg BID): −52.4
Change from Baseline in PSSD Sign Score, Median (Week 40, 100 mg BID): −54.5
Change from Baseline in PSSD Symptom Score, Mean (Week 40, 100 mg BID): −47.5
Change from Baseline in PSSD Symptom Score, Median (Week 40, 100 mg BID): −49.5
Subjects Achieving PSSD Sign Score 0 (%) (Week 40, 100 mg BID, Baseline Sign Score ≥1, N=42): (19.0%)
Subjects Achieving PSSD Symptom Score 0 (%) (Week 40, 100 mg BID, Baseline Symptom Score ≥1, N=42): (28.6%)
Change from Baseline in PSSD Sign Score, LSMean (Week 40, 100 mg BID): −51.4
Change from Baseline in PSSD Symptom Score, LSMean (Week 40, 100 mg BID): −43.5
Change from Baseline in PSSD Sign Score, Mean (Week 40, 100 mg QD): −42.4
Change from Baseline in PSSD Sign Score, Median (Week 40, 100 mg QD): −43.0
Change from Baseline in PSSD Symptom Score, Mean (Week 40, 100 mg QD): −28.2
Change from Baseline in PSSD Symptom Score, Median (Week 40, 100 mg QD): −24.0
Subjects Achieving PSSD Sign Score 0 (%) (Week 40, 100 mg QD, Baseline Sign Score ≥1, N=43): (18.6%)
Subjects Achieving PSSD Symptom Score 0 (%) (Week 40, 100 mg QD, Baseline Symptom Score ≥1, N=43): (18.6%)
Change from Baseline in PSSD Sign Score, LSMean (Week 40, 100 mg QD): −45.6
Change from Baseline in PSSD Symptom Score, LSMean (Week 40, 100 mg QD): −36.1
Change from Baseline in PSSD Sign Score, Mean (Week 40, Placebo → 100 mg QD): −36.6
Change from Baseline in PSSD Sign Score, Median (Week 40, Placebo → 100 mg QD): −48.5
Change from Baseline in PSSD Symptom Score, Mean (Week 40, Placebo → 100 mg QD): −23.8
Change from Baseline in PSSD Symptom Score, Median (Week 40, Placebo → 100 mg QD): −24.0
Subjects Achieving PSSD Sign Score 0 (%) (Week 40, Placebo → 100 mg QD, Baseline Sign Score ≥1, crossed-over subjects only): (14.3%)
Subjects Achieving PSSD Symptom Score 0 (%) (Week 40, Placebo → 100 mg QD, Baseline Symptom Score ≥1, crossed-over subjects only): (25.7%)
Change from Baseline in PSSD Sign Score, LSMean (Week 40, Placebo → 100 mg QD): −36.9
Change from Baseline in PSSD Symptom Score, LSMean (Week 40, Placebo → 100 mg QD): −27.0
Change from Baseline in PSSD Sign Score, Mean (Week 52, 25 mg BID): −36.6
Change from Baseline in PSSD Sign Score, Median (Week 52, 25 mg BID): −38.5
Change from Baseline in PSSD Symptom Score, Mean (Week 52, 25 mg BID): −31.2
Change from Baseline in PSSD Symptom Score, Median (Week 52, 25 mg BID): −27.0
Subjects Achieving PSSD Sign Score 0 (%) (Week 52, 25 mg BID, Baseline Sign Score ≥1, N=41): (12.2%)
Subjects Achieving PSSD Symptom Score 0 (%) (Week 52, 25 mg BID, Baseline Symptom Score ≥1, N=41): (17.1%)
Change from Baseline in PSSD Sign Score, LSMean (Week 52, 25 mg BID): −37.2
Change from Baseline in PSSD Symptom Score, LSMean (Week 52, 25 mg BID): −31.4
Change from Baseline in PSSD Sign Score, Mean (Week 52, 25 mg QD): −35.2
Change from Baseline in PSSD Sign Score, Median (Week 52, 25 mg QD): −32.5
Change from Baseline in PSSD Symptom Score, Mean (Week 52, 25 mg QD): −30.1
Change from Baseline in PSSD Symptom Score, Median (Week 52, 25 mg QD): −35.0
Subjects Achieving PSSD Sign Score 0 (%) (Week 52, 25 mg QD, Baseline Sign Score ≥1, N=43): (16.3%)
Subjects Achieving PSSD Symptom Score 0 (%) (Week 52, 25 mg QD, Baseline Symptom Score ≥1, N=43): (18.6%)
Change from Baseline in PSSD Sign Score, LSMean (Week 52, 25 mg QD): −27.9
Change from Baseline in PSSD Symptom Score, LSMean (Week 52, 25 mg QD): −22.3
Change from Baseline in PSSD Sign Score, Mean (Week 52, 50 mg QD): −39.2
Change from Baseline in PSSD Sign Score, Median (Week 52, 50 mg QD): −45.0
Change from Baseline in PSSD Symptom Score, Mean (Week 52, 50 mg QD): −35.2
Change from Baseline in PSSD Symptom Score, Median (Week 52, 50 mg QD): −34.0
Subjects Achieving PSSD Sign Score 0 (%) (Week 52, 50 mg QD, Baseline Sign Score ≥1, N=43): (11.6%)
Subjects Achieving PSSD Symptom Score 0 (%) (Week 52, 50 mg QD, Baseline Symptom Score ≥1, N=42): (21.4%)
Change from Baseline in PSSD Sign Score, LSMean (Week 52, 50 mg QD): −39.0
Change from Baseline in PSSD Symptom Score, LSMean (Week 52, 50 mg QD): −33.0
Change from Baseline in PSSD Sign Score, Mean (Week 52, 100 mg BID): −53.1
Change from Baseline in PSSD Sign Score, Median (Week 52, 100 mg BID): −55.0
Change from Baseline in PSSD Symptom Score, Mean (Week 52, 100 mg BID): −47.7
Change from Baseline in PSSD Symptom Score, Median (Week 52, 100 mg BID): −53.0
Subjects Achieving PSSD Sign Score 0 (%) (Week 52, 100 mg BID, Baseline Sign Score ≥1, N=42): (16.7%)
Subjects Achieving PSSD Symptom Score 0 (%) (Week 52, 100 mg BID, Baseline Symptom Score ≥1, N=42): (26.2%)
Change from Baseline in PSSD Sign Score, LSMean (Week 52, 100 mg BID): −51.9
Change from Baseline in PSSD Symptom Score, LSMean (Week 52, 100 mg BID): −44.0
Change from Baseline in PSSD Sign Score, Mean (Week 52, 100 mg QD): −43.1
Change from Baseline in PSSD Sign Score, Median (Week 52, 100 mg QD): −43.0
Change from Baseline in PSSD Symptom Score, Mean (Week 52, 100 mg QD): −29.4
Change from Baseline in PSSD Symptom Score, Median (Week 52, 100 mg QD): −28.0
Subjects Achieving PSSD Sign Score 0 (%) (Week 52, 100 mg QD, Baseline Sign Score ≥1, N=43): (14.0%)
Subjects Achieving PSSD Symptom Score 0 (%) (Week 52, 100 mg QD, Baseline Symptom Score ≥1, N=43): (30.2%)
Change from Baseline in PSSD Sign Score, LSMean (Week 52, 100 mg QD): −45.8
Change from Baseline in PSSD Symptom Score, LSMean (Week 52, 100 mg QD): −36.5
Change from Baseline in PSSD Sign Score, Mean (Week 52, Placebo → 100 mg QD): −42.8
Change from Baseline in PSSD Sign Score, Median (Week 52, Placebo → 100 mg QD): −48.5
Change from Baseline in PSSD Symptom Score, Mean (Week 52, Placebo → 100 mg QD): −29.5
Change from Baseline in PSSD Symptom Score, Median (Week 52, Placebo → 100 mg QD): −30.0
Subjects Achieving PSSD Sign Score 0 (%) (Week 52, Placebo → 100 mg QD, Baseline Sign Score ≥1, crossed-over subjects only): (22.9%)
Subjects Achieving PSSD Symptom Score 0 (%) (Week 52, Placebo → 100 mg QD, Baseline Symptom Score ≥1, crossed-over subjects only): (34.3%)
Change from Baseline in PSSD Sign Score, LSMean (Week 52, Placebo → 100 mg QD): −43.1
Change from Baseline in PSSD Symptom Score, LSMean (Week 52, Placebo → 100 mg QD): −32.4
